The results in this text go back to patent US20260226068A1, “IMIDAZOTRIAZINE IL-17A MODULATORS AND USES THEREOF” (DICE ALPHA, INC., priority 2023, published 2026).

One assay deals with T1, IL-17A/A (Homo sapiens, UniProt Q16552).
T1 construct: purchased Genscript Z03228
T1 sequence (Q16552 24-155): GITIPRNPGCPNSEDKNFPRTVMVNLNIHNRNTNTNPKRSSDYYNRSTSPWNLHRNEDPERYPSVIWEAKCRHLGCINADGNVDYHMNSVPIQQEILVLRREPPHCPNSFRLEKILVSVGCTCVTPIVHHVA
Kind of assay: IL-17A/A HEK-Blue cell assay (SEAP reporter). It is filed as cell-based. As to conditions: HEK-Blue IL-17A reporter cells, IL17A/A 5 ng/mL, 20 hours, SEAP read at A630; read-out: HEK-Blue IL17AA (IC50 for IL-17A/A inhibition).

A further assay concerns the target T2, IL-17A/F (Homo sapiens, UniProt Q16552+Q96PD4).
T2 construct: purchased R&D Systems
T2 sequence (Q16552 24-155): T1 sequence (Q16552 24-155)
T2 sequence (Q96PD4 31-163): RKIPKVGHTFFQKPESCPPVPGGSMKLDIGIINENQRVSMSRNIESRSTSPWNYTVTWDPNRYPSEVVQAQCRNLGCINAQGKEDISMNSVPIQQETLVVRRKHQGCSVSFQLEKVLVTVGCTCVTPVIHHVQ
Kind of assay: IL-17A/F HEK-Blue cell assay (SEAP reporter). As to conditions: HEK-Blue IL-17A reporter cells, IL17A/F 5 ng/mL, 20 hours, SEAP read at A630; read-out: HEK-Blue IL17AF (IC50 for IL-17A/F inhibition). It is filed as cell-based.

Structures are written as SMILES. Bounds are passed on as bounds.

As for `CCn1nccc1C(=O)N[C@H](c1cn2nc(C[C@H]3C[C@@H](C(F)(F)F)NC3=O)c(C3CCOCC3)nc2n1)[C@H]1CC[C@H](C)CC1` [Compound 152, 1-ethyl-N—((S)-((1R,4S)-4-methylcyclohexyl)(2-(((3R,5S)-2-oxo-5-(trifluoromethyl)pyrrolidin-3-yl)methyl)-3-(tetrahydro-2H-pyran-4-yl)imidazo[1,2-b][1,2,4]triazin-6-yl)methyl)-1H-pyrazole-5-carboxamide], the IC50 at IL-17A/A is less than 100 nM; on IL-17A/F, 100 to 1000 nM.

Turning to `O=C(N[C@H](c1cn2nc(C[C@H]3C[C@@H](C(F)(F)F)CNC3=O)c(C3CCOCC3)nc2n1)C1CCC(F)(F)CC1)c1ccn[nH]1` [Compound 154, N-((1S)-(4,4-difluorocyclohexyl)(2-(((3R,5R)-2-oxo-5-(trifluoromethyl)piperidin-3-yl)methyl)-3-(tetrahydro-2H-pyran-4-yl)imidazo[1,2-b][1,2,4]triazin-6-yl)methyl)-1H-pyrazole-5-carboxamide], the IC50 was less than 100 nM at IL-17A/A and greater than 1000 nM on IL-17A/F.

On to `CCn1nccc1C(=O)N[C@H](c1cn2nc(C[C@H]3C[C@H](C(F)(F)F)CNC3=O)c(C3CCOCC3)nc2n1)[C@H]1CC[C@H](C)CC1` [Compound 155, 1-ethyl-N-((1S)-((1r,4S)-4-methylcyclohexyl)(2-(((3R,5S)-2-oxo-5-(trifluoromethyl)piperidin-3-yl)methyl)-3-(tetrahydro-2H-pyran-4-yl)imidazo[1,2-b][1,2,4]triazin-6-yl)methyl)-1H-pyrazole-5-carboxamide], for which the IC50 is less than 100 nM on IL-17A/A and 100 to 1000 nM on IL-17A/F.

`CCn1nccc1C(=O)N[C@H](c1cn2nc(C[C@H]3C[C@H](C(F)(F)F)CNC3=O)c(C(C)(C)C)nc2n1)C1CCC(F)(F)CC1` [Compound 156, N-((1S)-(4,4-difluorocyclohexyl)(3-(tert-butyl)-2-(((3R,5S)-2-oxo-5-(trifluoromethyl)piperidin-3-yl)methyl)imidazo[1,2-b][1,2,4]triazin-6-yl)methyl)-1-ethyl-1H-pyrazole-5-carboxamide]: the IC50 on IL-17A/A is less than 100 nM; on IL-17A/F, greater than 1000 nM.

In the case of `CCn1nccc1C(=O)N[C@H](c1cn2nc(C[C@H]3C[C@@H](C(F)(F)F)CNC3=O)c(N3CCO[C@H](C)C3)nc2n1)[C@H]1CC[C@H](C)CC1` [Compound 157, 1-ethyl-N—((S)-((1r,4S)-4-methylcyclohexyl)(3-((R)-2-methylmorpholino)-2-(((3R,5R)-2-oxo-5-(trifluoromethyl)piperidin-3-yl)methyl)imidazo[1,2-b][1,2,4]triazin-6-yl)methyl)-1H-pyrazole-5-carboxamide], the IC50 on IL-17A/A and on IL-17A/F was less than 100 nM each time.

`CCn1nccc1C(=O)N[C@H](c1cn2nc(C[C@H]3C[C@@H](C(F)(F)F)CNC3=O)c(N3CCO[C@@H](C)C3)nc2n1)[C@H]1CC[C@H](C)CC1` [Compound 158, 1-ethyl-N—((S)-((1r,4S)-4-methylcyclohexyl)(3-((S)-2-methylmorpholino)-2-(((3R,5R)-2-oxo-5-(trifluoromethyl)piperidin-3-yl)methyl)imidazo[1,2-b][1,2,4]triazin-6-yl)methyl)-1H-pyrazole-5-carboxamide]: the IC50 at IL-17A/A was less than 100 nM; on IL-17A/F, 100 to 1000 nM.

As for `CCn1nccc1C(=O)N[C@H](c1cn2nc(C[C@H]3C[C@H](C(F)(F)F)CNC3=O)c(C(C)(C)F)nc2n1)C1CCC(F)(F)CC1` [Compound 161, N-((1S)-(4,4-difluorocyclohexyl)(3-(2-fluoropropan-2-yl)-2-(((3R,5S)-2-oxo-5-(trifluoromethyl)piperidin-3-yl)methyl)imidazo[1,2-b][1,2,4]triazin-6-yl)methyl)-1-ethyl-1H-pyrazole-5-carboxamide], the figures for the IC50 at IL-17A/A and on IL-17A/F were less than 100 nM and greater than 1000 nM, respectively.

Consider `CCn1nccc1C(=O)N[C@H](c1cn2nc(C[C@H]3C[C@@H](C(F)(F)F)CNC3=O)c(N3CCC4(CCOCC4)C3)nc2n1)C1CCC(F)(F)CC1` [Compound 162, N—((S)-(4,4-difluorocyclohexyl)(2-(((3R,5R)-2-oxo-5-(trifluoromethyl)piperidin-3-yl)methyl)-3-(8-oxa-2-azaspiro[4.5]decan-2-yl)imidazo[1,2-b][1,2,4]triazin-6-yl)methyl)-1-ethyl-1H-pyrazole-5-carboxamide], for which the values for the IC50 on IL-17A/A and on IL-17A/F were less than 100 nM and 100 to 1000 nM, respectively.

For `CCn1nccc1C(=O)N[C@H](c1cn2nc(C[C@H]3C[C@@H](C(F)(F)F)CNC3=O)c(C3(C)CCOCC3)nc2n1)C1CCC(F)(F)CC1` [Compound 164, N-((1S)-(4,4-difluorocyclohexyl)(3-(4-methyltetrahydro-2H-pyran-4-yl)-2-(((3R,5R)-2-oxo-5-(trifluoromethyl)piperidin-3-yl)methyl)imidazo[1,2-b][1,2,4]triazin-6-yl)methyl)-1-ethyl-1H-pyrazole-5-carboxamide], the IC50 at IL-17A/A was less than 100 nM; on IL-17A/F, 100 to 1000 nM.

With `CCc1nc2nc([C@@H](NC(=O)c3ccnn3CC)C3CCC(F)(F)CC3)cn2nc1C[C@H]1C[C@@H](C(F)(F)F)CNC1=O` [Compound 167, N-((1S)-(4,4-difluorocyclohexyl)(3-ethyl-2-(((3R,5R)-2-oxo-5-(trifluoromethyl)piperidin-3-yl)methyl)imidazo[1,2-b][1,2,4]triazin-6-yl)methyl)-1-ethyl-1H-pyrazole-5-carboxamide], the IC50 at IL-17A/A is less than 100 nM; at IL-17A/F it was 100 to 1000 nM.

Take `CCn1nccc1C(=O)N[C@H](c1cn2nc(C[C@H]3C[C@@H](C(F)(F)F)CNC3=O)c(CC3COC3)nc2n1)C1CCC(F)(F)CC1` [Compound 168, N-((1S)-(4,4-difluorocyclohexyl)(3-(oxetan-3-ylmethyl)-2-(((3R,5R)-2-oxo-5-(trifluoromethyl)piperidin-3-yl)methyl)imidazo[1,2-b][1,2,4]triazin-6-yl)methyl)-1-ethyl-1H-pyrazole-5-carboxamide]: the values for the IC50 at IL-17A/A and at IL-17A/F were less than 100 nM and 100 to 1000 nM, respectively.

In the case of `CCn1nccc1C(=O)N[C@H](c1cn2nc(C[C@H]3C[C@@H](C(F)(F)F)CNC3=O)c(C(C)(C)C3CCOCC3)nc2n1)C1CCC(F)(F)CC1` [Compound 169, N-((1S)-(4,4-difluorocyclohexyl)(2-(((3R,5R)-2-oxo-5-(trifluoromethyl)piperidin-3-yl)methyl)-3-(2-(tetrahydro-2H-pyran-4-yl)propan-2-yl)imidazo[1,2-b][1,2,4]triazin-6-yl)methyl)-1-ethyl-1H-pyrazole-5-carboxamide], the IC50 was less than 100 nM on IL-17A/A and greater than 1000 nM at IL-17A/F.

On to `CCn1nccc1C(=O)N[C@H](c1cn2nc(C[C@H]3C[C@@H](C(F)(F)F)CNC3=O)c(CC3CCOC3)nc2n1)C1CCC(F)(F)CC1` (stereo partly drawn) [Compound 170, N-((1S)-(4,4-difluorocyclohexyl)(2-(((3R,5R)-2-oxo-5-(trifluoromethyl)piperidin-3-yl)methyl)-3-((tetrahydrofuran-3-yl)methyl)imidazo[1,2-b][1,2,4]triazin-6-yl)methyl)-1-ethyl-1H-pyrazole-5-carboxamide], for which the values for the IC50 at IL-17A/A and on IL-17A/F were less than 100 nM and 100 to 1000 nM, respectively.

In the case of `CCn1nccc1C(=O)N[C@H](c1cn2nc(C[C@H]3C[C@@H](C(F)(F)F)CNC3=O)c(CC3CCCO3)nc2n1)C1CCC(F)(F)CC1` (stereo partly drawn) [Compound 171, N-((1S)-(4,4-difluorocyclohexyl)(2-(((3R,5R)-2-oxo-5-(trifluoromethyl)piperidin-3-yl)methyl)-3-((tetrahydrofuran-2-yl)methyl)imidazo[1,2-b][1,2,4]triazin-6-yl)methyl)-1-ethyl-1H-pyrazole-5-carboxamide], the IC50 was less than 100 nM at IL-17A/A and 100 to 1000 nM on IL-17A/F.

As for `CCn1nccc1C(=O)N[C@H](c1cn2nc(C[C@H]3C[C@@H](C(F)(F)F)CNC3=O)c(CC3CCCCO3)nc2n1)C1CCC(F)(F)CC1` (stereo partly drawn) [Compound 172, N-((1S)-(4,4-difluorocyclohexyl)(2-(((3R,5R)-2-oxo-5-(trifluoromethyl)piperidin-3-yl)methyl)-3-((tetrahydro-2H-pyran-2-yl)methyl)imidazo[1,2-b][1,2,4]triazin-6-yl)methyl)-1-ethyl-1H-pyrazole-5-carboxamide], the IC50 on IL-17A/A was less than 100 nM; on IL-17A/F, 100 to 1000 nM.

Turning to `CCn1nccc1C(=O)N[C@H](c1cn2nc(C[C@H]3C[C@@H](C(F)(F)F)CNC3=O)c(CC3COCCO3)nc2n1)C1CCC(F)(F)CC1` (stereo partly drawn) [Compound 173, N-((1S)-(3-((1,4-dioxan-2-yl)methyl)-2-(((3R,5R)-2-oxo-5-(trifluoromethyl)piperidin-3-yl)methyl)imidazo[1,2-b][1,2,4]triazin-6-yl)(4,4-difluorocyclohexyl)methyl)-1-ethyl-1H-pyrazole-5-carboxamide], the IC50 is 100 to 1000 nM on IL-17A/A and greater than 1000 nM on IL-17A/F.

In the case of `CCn1nccc1C(=O)N[C@H](c1cn2nc(C[C@H]3C[C@@H](C(F)(F)F)CNC3=O)c(CC3CCOCC3)nc2n1)[C@H]1CC[C@H](C)CC1` [Compound 179, 1-ethyl-N-((1S)-((1R,4S)-4-methylcyclohexyl)(2-(((3R,5R)-2-oxo-5-(trifluoromethyl)piperidin-3-yl)methyl)-3-((tetrahydro-2H-pyran-4-yl)methyl)imidazo[1,2-b][1,2,4]triazin-6-yl)methyl)-1H-pyrazole-5-carboxamide], the IC50 at IL-17A/A and on IL-17A/F was less than 100 nM each time.
